Results from patent publication US20050288273A1, “Antibacterial agents” (priority 2003, published 2005).
Values after ≈ are worked out from the molar mass of the structure shown.

Experiments:
H. influenzae HI3542 = experiment: Antibacterial assay (MIC), standard microtitration, Gram negative; assay type: cell-based; conditions: Haemophilus influenzae, HI3542; Gram negative bacteria; read-out: Minimum Inhibitory Concentrations H. influenzae HI3542
From the text: (§1) Test A—Antibacterial Assays

M. catarrhalis BC3534 = experiment: as above; assay type: cell-based; conditions: Moraxella catarrhalis, BC3534; Gram negative bacteria; read-out: Minimum Inhibitory Concentrations M. catarrhalis BC3534
From the text: as §1

E. coli Tol C = experiment: as above; assay type: cell-based; conditions: Escherichia coli, read-out: Minimum Inhibitory Concentrations E. coli Tol C
From the text: as §1

S. aureus SA-3839 = experiment: Cross resistance antibacterial assay (MIC), strain 8; assay type: cell-based; conditions: Staphylococcus aureus, SA3839; S. aureus SA-3839, multiple drug resistant (linezolid and methicillin); read-out: Minimum Inhibitory Concentrations in Strain 8
From the text: (§2) Test C—Cross Resistance Antibacterial Assay

S. aureus SA-3528 = experiment: Cross resistance antibacterial assay (MIC), strain 7; assay type: cell-based; conditions: Staphylococcus aureus, SA3528; S. aureus SA-3528, multiple drug resistant (MLS); read-out: Minimum Inhibitory Concentrations in Strain 7
From the text: as §2

E. faecalis EF-3838 = experiment: Cross resistance antibacterial assay (MIC), strain 3; assay type: cell-based; conditions: Enterococcus faecalis, EF3838; E. faecalis EF-3838, multiple drug resistant (vancomicin, erythromycin, gentamicin); read-out: Minimum Inhibitory Concentrations in Strain 3
From the text: as §2

S. aureus SA-2017 = experiment: Cross resistance antibacterial assay (MIC), strain 6; assay type: cell-based; conditions: Staphylococcus aureus, SA2017; S. aureus SA-2017, multiple drug resistant (methicillin, ciprofloxacin); read-out: Minimum Inhibitory Concentrations in Strain 6
From the text: as §2

E. faeciaum EF4-3836 = experiment: Cross resistance antibacterial assay (MIC), strain 5; conditions: read-out: Minimum Inhibitory Concentrations in Strain 5
Protocol: (§3) The compounds of the present invention were tested against an assortment of drug resistant organisms described below using standard microtitration techniques (Cohen, et. al., Antimicrob. Agents Chemother., 1985; 28:766; Heifetz, et. al., Antimicrob. Agents Chemother, 1974; 6:124). […] E. faeciaum EF4-3525: Vancomicin resitant strain. • 5. E. faeciaum EF4-3836: Multiple drug resitant strain (lineozolid, AZD2563-R, vancomicin, ampicillin, macrolide-R, quinolone-R, trimeothprim/sulfamethoxazole). • 6.

E. faecalis EF-13524 = experiment: Cross resistance antibacterial assay (MIC), strain 2; assay type: cell-based; conditions: Enterococcus faecalis, EF13524; E. faecalis EF-13524, vancomicin resistant strain; read-out: Minimum Inhibitory Concentrations in Strain 2
From the text: as §2

E. faeciaum EF4-3525 = experiment: Cross resistance antibacterial assay (MIC), strain 4; conditions: read-out: Minimum Inhibitory Concentrations in Strain 4
Protocol: as §3

S pyogenes C203 = experiment: Antibacterial assay (MIC), standard microtitration, Gram positive; assay type: cell-based; conditions: Gram positive bacteria; read-out: Minimum Inhibitory Concentrations S pyogenes C203
From the text: as §1

S. aureus UC-76 = experiment: as above; assay type: cell-based; conditions: Staphylococcus aureus, UC76; Gram positive bacteria; read-out: Minimum Inhibitory Concentrations S. aureus UC-76
From the text: as §1

E. faecalis MGH-2 = experiment: as above; assay type: cell-based; conditions: Enterococcus faecalis, MGH2; Gram positive bacteria; read-out: Minimum Inhibitory Concentrations E. faecalis MGH-2
From the text: as §1

S. pyogenes C-203 = experiment: In vivo activity (mouse), median protective dose in lethal systemic infection; conditions: mice
Protocol: Test B—In Vivo Activity (Mouse)
The in vivo activity was obtained when the compounds were tested according to the procedure of Miller, et al. (Proc. Soc. Exp. Biol. Med., 1944; 57:261). The median protective dose (PD50) was determined in mice given lethal systemic infections, as depicted in Table 4.

S. pneumoniae SP-3561 = experiment: Cross resistance antibacterial assay (MIC), strain 11; assay type: cell-based; conditions: Streptococcus pneumoniae, SP3561; S. pneumoniae SP-3561, multiple drug resistant (penicillin, macrolide-R, tetracycline etc.); read-out: Minimum Inhibitory Concentrations in Strain 11
From the text: as §2

S. pyogenes SP1-3541 = experiment: Cross resistance antibacterial assay (MIC), strain 12; assay type: cell-based; conditions: Streptococcus pyogenes, SP13541; S. pyogenes SP1-3541, multiple drug resistant (MLS); read-out: Minimum Inhibitory Concentrations in Strain 12
From the text: as §2

S. aureus SA-3840 = experiment: Cross resistance antibacterial assay (MIC), strain 9; assay type: cell-based; conditions: Staphylococcus aureus, SA3840; S. aureus SA-3840, multiple drug resistant (linezolid and methicillin); read-out: Minimum Inhibitory Concentrations in Strain 9
From the text: as §2

S. pneumoniae SP-3536 = experiment: Cross resistance antibacterial assay (MIC), strain 10; assay type: cell-based; conditions: Streptococcus pneumoniae, SP3536; S. pneumoniae SP-3536, multiple drug resistant (B-lactamase and macrolide-R); read-out: Minimum Inhibitory Concentrations in Strain 10
From the text: as §2

H. influenziae Hi-3113 = experiment: Cross resistance antibacterial assay (MIC), strain 13; assay type: cell-based; conditions: H. influenziae Hi-3113, B-lactamase; read-out: Minimum Inhibitory Concentrations in Strain 13
From the text: as §2
13. H. influenziae Hi-3113: B-lactamase

For `CC(=O)NC[C@H]1CN(c2ccc3c(c2)CCCc2cn[nH]c2-3)C(=O)O1` [Example 3, (S)-N-[2-Oxo-3-(1,4,5,6-tetrahydro-1,2-diaza-benzo[e]azulen-8-yl)oxazolidin-5-ylmethyl]acetamide], the MIC (H. influenzae HI3542) was 2 µg/mL (≈ 5.88 µM), the MIC (M. catarrhalis BC3534) was 2 µg/mL (≈ 5.88 µM) and the MIC (E. coli Tol C) was > 64 µg/mL. The MIC (S. aureus SA-3839) was 16 µg/mL (≈ 47 µM), the MIC (S. aureus SA-3528) was 8 µg/mL (≈ 23.5 µM) and the MIC (E. faecalis EF-3838) was 0.5 µg/mL (≈ 1.47 µM). The MIC (S. aureus SA-2017) was 1 µg/mL (≈ 2.94 µM), the MIC (E. faeciaum EF4-3836) was 1 µg/mL (≈ 2.94 µM) and the MIC (E. faecalis EF-13524) was 0.25 µg/mL (≈ 0.734 µM). For the same compound, the MIC (E. faeciaum EF4-3525) was 0.5 µg/mL (≈ 1.47 µM), the MIC (S pyogenes C203) was 0.125 µg/mL (≈ 0.367 µM) and the MIC (S. aureus UC-76) was 0.5 µg/mL (≈ 1.47 µM). The MIC (E. faecalis MGH-2) was 0.25 µg/mL (≈ 0.734 µM), the “PD50 (median protective dose)” value (S. pyogenes C-203; S. pyogenes C-203, oral) was 6.4 mg/kg and the “PD50 (median protective dose)” value (S. pyogenes C-203; S. pyogenes C-203, subcutaneous) was 2.1 mg/kg.
In the case of `CC(C)(C)OC(=O)NC[C@H]1CN(c2ccc3c(c2)CCCc2cn[nH]c2-3)C(=O)O1` [Example 56, (S)-[2-Oxo-3-(1,4,5,6-tetrahydro-1,2-diaza-benzo[e]azulen-8-yl)-oxazolidin-5-ylmethyl]-carbamic acid tert-butyl ester], the MIC (H. influenzae HI3542) is reported as > 64 µg/mL, the MIC (M. catarrhalis BC3534) is reported as 16 µg/mL (≈ 40.2 µM) and the MIC (E. coli Tol C) is reported as > 64 µg/mL. The melting point was 85 to 100 °C, the MIC (S pyogenes C203) was 4 µg/mL (≈ 10 µM) and the MIC (S. aureus UC-76) was 1 µg/mL (≈ 2.51 µM). It also gave an MIC (E. faecalis MGH-2) of 4 µg/mL (≈ 10 µM).
`CC(=O)NC[C@H]1CN(c2ccc3c(c2)CCCc2cnoc2-3)C(=O)O1` [Example 3A, (S)-N-[3-(5,6-dihydro-4H-1-oxa-2-aza-benzo[e]azulen-8-yl)-2-oxo-oxalidin-5-ylmethyl]acetamide] gave an MIC (S. pneumoniae SP-3561) of 0.25 µg/mL (≈ 0.732 µM), an MIC (S. aureus SA-3839) of 4 µg/mL (≈ 11.7 µM) and an MIC (S. aureus SA-3528) of 48 µg/mL (≈ 141 µM). It also gave an MIC (S. pyogenes SP1-3541) of 0.5 µg/mL (≈ 1.46 µM), an MIC (E. faecalis EF-3838) of 1 µg/mL (≈ 2.93 µM) and an MIC (S. aureus SA-3840) of 4 µg/mL (≈ 11.7 µM). It also gave an MIC (S. pneumoniae SP-3536) of 4 µg/mL (≈ 11.7 µM), an MIC (S. aureus SA-2017) of 0.5 µg/mL (≈ 1.46 µM) and an MIC (E. faeciaum EF4-3836) of 1 µg/mL (≈ 2.93 µM). It also gave an MIC (H. influenziae Hi-3113) of 2 µg/mL (≈ 5.86 µM), an MIC (E. faecalis EF-13524) of 0.25 µg/mL (≈ 0.732 µM) and an MIC (E. faeciaum EF4-3525) of 0.5 µg/mL (≈ 1.46 µM).
With `CC(=O)NC[C@H]1CN(c2ccc3c(c2)CCCc2c-3nn(CCO)c2-c2ccncc2)C(=O)O1` [Example 209, (S)-N-{3-[2-(2-Hydroxy-ethyl)-3-pyridin-4-yl-2,4,5,6-tetrahydro-1,2-diaza-benzo[e]azulen-8-yl]-2-oxo-oxazolidin-5-ylmethyl}-acetamide] the MIC (H. influenzae HI3542) was 32 µg/mL (≈ 69.3 µM), the MIC (M. catarrhalis BC3534) was > 64 µg/mL and the MIC (E. coli Tol C) was > 64 µg/mL. It also gave an MIC (S pyogenes C203) of 4 µg/mL (≈ 8.67 µM), an MIC (S. aureus UC-76) of 16 µg/mL (≈ 34.7 µM) and an MIC (E. faecalis MGH-2) of 8 µg/mL (≈ 17.3 µM).
For `O=C1O[C@@H](COc2ccccn2)CN1c1ccc2c(c1)CCCc1cn[nH]c1-2` [Example 164, (R)-5-(Pyridin-2-yloxymethyl)-3-(1,4,5,6-tetrahydro-1,2-diaza-benzo[e]azulen-8-yl)-oxazolidin-2-one], the MIC (H. influenzae HI3542) was > 64 µg/mL, the MIC (M. catarrhalis BC3534) was > 64 µg/mL and the MIC (E. coli Tol C) was > 64 µg/mL. For the same compound, the MIC (S pyogenes C203) was 2 µg/mL (≈ 5.31 µM), the MIC (S. aureus UC-76) was 4 µg/mL (≈ 10.6 µM) and the MIC (E. faecalis MGH-2) was 4 µg/mL (≈ 10.6 µM).
